Results as given in patent US12102672B2, “Immunogenic sequences from a phage tail length tape measure protein, bacteria expressing the same and their use in treating a cancer” (INSTITUT GUSTAVE ROUSSY, priority 2017, dated 2024).

Legend:
splenic CD8+ T cells = test: IFNγ ELISpot recall assay of splenic CD8+ T cells with DCs pulsed with heat-inactivated bacteria or peptides; format: cell-based, mice; conditions: for memory Tc1 immune response (IFNγ spots) to BM-DC infected with EH isolates: Example 2, FIG. 10, splenic CD8+ T cells after gavage + CTX, ELISPOT at 24 hrs; for specific TC1 immune responses after restimulation with E. hirae strains loaded onto DC: Example 12, FIG. 27D, prime-boost exposure + CTX
Procedure: FIG. 9. Experimental immunization protocols to elucidate the immunogenicity of EH peptides. […] 5 days after the first oral gavage, mice are treated with CTX. One week post-CTX, CD8+ T cells are isolated from spleen. These CD8+ T cells are incubated with dendritic cells (DCs) pulsed with 20 μg/ml of peptides (during 1 hour) or with heat-inactivated bacteria (during 6 hours). Inactivation of bacteria consists in incubation at 65° C. during 2 hours. After 24 hours of culture, ELIspot of IFNγ is performed.
FIG. 10. Cross-reactivity between the two E. hirae 708 and 13144 species for CTL splenic reactivity. Number of IFNγ spot representing IFNγ-secreting CD8+ T cells after co-culture with DCs pre-incubated with or without heat-inactivated bacteria (708, 13144, EH17 and L. plantarum).
FIG. 13. Peptides from group 7 containing the TMP1 and TMP2 epitopes activate CD8+ T cells from spleen of mice immunized against E. hirae 13144. Number of IFNγ spot, representing IFNγ-secreting CD8+ T cells, after incubation with DCs pulsed with 13 different group of peptide (Table 6). Just group n° 1 (A) and group n° 7 (B) are shown. (C, E) Number of IFNγ spot, representing IFNγ-secreting CD8+ T cells, after incubation with DCs pulsed with 4 peptides belong to group n° 7 (in table 7). (D) Sequence alignment of TMP1 and TMP2 of EH10815 (SEQ ID Nos: 228 and 229 respectively) compared to EH13144 (fragments of SEQ ID NO: 1) at the level of immunogenic peptides. Amino acid sequence […] corresponds to SEQ ID No: 13. Amino acid sequence […] corresponds to SEQ ID No: 217. Amino acid sequence […] corresponds to SEQ ID Nos: 14. Amino acid sequence AlIEFIKGL corresponds to SEQ ID No: 218. (E) In vitro reactivity of splenic CTL in a recall response to TMP1 and TMP2 as well as Group7 after in vivo immunization with other strains of EH.
A and C. Experimental setting. […] D-E. Ex vivo recall assays. […] Each dot represents one mouse.

[1] = tested on: TMP1-specific CD8+ T cells
MCA205 sarcoma = test: Prophylactic vaccination with pulsed DCs followed by MCA205 challenge; format: in vivo, C57BL/6 mice; conditions: poly I:C-activated BM-DC pulsed with peptides (20 μg/ml) or heat-inactivated bacteria, s.c. twice 10 days apart
Procedure: FIG. 16. Protocol of immunization with DC pulsed with TMP peptides. After DCs differentiation (with GM-CSF and IL-4 during 6 days), we incubated them with poly I:C (10 μg/ml) overnight before the addition of peptide (1 hour) or heat-inactivated bacteria (6 hours). These DCs are injected subcutaneous on right flank at day 0 and 10. […] We constitute 4 groups, one group without DCs, one group with DCs pulsed with 20 μg/ml of irrelevant peptides (gr1) or TMP peptides or 13144 heat-inactivated bacteria. Mean tumor sizes over time (A), each mouse tumor kinetics for each group (B), and the detailed comparison in between groups at the two last time points before sacrifice for MCA205 are shown (C), each dot representing one mouse. MC38 related data are not shown.
FIG. 17. […] Tumor growth of MCA205 in mice vaccinated with DCs pulsed with gr1 peptides, TMP peptides and E. hirae 13144. (A) Mean±SEM of tumor sizes at different kinetics. (B) Tumor growth kinetics for each individual group of 5-10 mice. (C) Tumor sizes and statistical differences at time of sacrifice.
A-B. Prophylactic vaccinations. […] C-D. Therapeutic settings.
After DCs differentiation, these DCs were activated with poly I:C (10 μg/ml, Invivogen) overnight before infection with heat-inactivated (2 h at 65° C.) bacterial strains (MOI 10) or pulsed with peptides (20 μg/ml, peptide 2.0). […]

ileal bacterial colonies = test: Culturomics and TMP PCR of ileal content after gavage with E. hirae 13144 and CTX; format: in vivo, C57BL/6 mice; conditions: 76 colonies, oral gavage + systemic CTX
Description: . […] Also refer to FIG. 39.
PCR amplification of the TMP sequence (refer to FIG. 36) in each colony growing after seeding of ileal content in aerobic conditions to isolate Gram+ bacteria. A photograph of each agarose electrophoresis gel is shown for each animal. A depicts the results in 5 naive mice and B depicts the findings after CTX+oral gavage with the phage encoding bacterium. Each vertical lane corresponds to one bacterium identified in MALDI-TOF. Initials are detailed in the lower part of panel A. The positive control (Ctl+) represents the DNA of E. hirae 13144.
We cultivated the stools (of patients) or ileal material (mice) after several dilutions in aerobic conditions and permissive medium to allow isolation of enterococci colonies (according to a procedure described in (Samb-Ba et al., 2014)). We performed a PCR of the TMP sequence in each single cultivable Enterococcus colony. One colony was put in 100 μl of nuclease-free water to release the bacterial DNA and PCR was performed with 5 μl of DNA, 12.5 μl of PCR master mix (Thermoscientific), 5 μl of nuclease-free water and 1.25 μl of each TMP primers (20 µM). […] The sequence of primers are: forward 5′-[…]-3′ ID No: reverse 5′-(SEQ 191) and […]-3′ (SEQ ID No: 192) (amplicon 1026 bp). […]

Row | Substance | memory Tc1 immune response (IFNγ spots) to BM-DC infected with EH isolates (splenic CD8+ T cells) | specific TC1 immune responses after restimulation with E. hirae strains loaded onto DC (splenic CD8+ T cells) | TC1 response against TMP1 in mice gavaged with the strain (IFNγ ELISpot) (splenic CD8+ T cells; Example 12, FIG. 27E) | splenic CD8+ T cells recognizing the TMP1 peptide ([1]; day 12 following CTX/E. hirae 13144 regimen, FIG. 27F) | enrichment of TMP1-specific CTLs in the TC1 subset harboring CCR9 ([1]; spleens from naive and tumor bearers, tumor draining lymph nodes) | protection against MCA205 tumor challenge (MCA205 sarcoma) | in vivo transduction of by-stander Enterococci by the phage (ileal bacterial colonies)
1 | Enterococcus hirae 708 [Peptide 708, reference compound] | could induce memory Tc1 immune responses | failed to do so | unable to do so |  |  |  | 
2 | Enterococcus hirae strain 13144 [Peptide 13144] | could induce memory Tc1 immune responses | triggered specific TC1 immune responses |  | Up to 1% | 3-5 fold | reduced tumor growth | E. gallinarum was the only by-stander Enterococci transduced
